From the Deep4Chem optical property database

Assay: photoluminescence quantum yield (fraction); solvent given as SMILES

**Q.** Which photoluminescence quantum yield (in Cc1ccccc1) does the source give for c1cc2c3c(c1)-c1ccc4c5c(ccc(c15)B3c1ccc3c5c(ccc-2c15)CC3)CC4 here?
**A.** 0.79

**Q.** With O=C(O)CC[N+]1=c2cc3c(cc2CCC1)=Cc1c(c2cc4c5c(c2oc1=O)CCCN5CCC4)O3 as the molecule, how does the photoluminescence quantum yield (in CC#N) read?
**A.** 0.025

**Q.** What about the photoluminescence quantum yield (in CO) of the same molecule?
**A.** 0.013

**Q.** What about the photoluminescence quantum yield (in ClCCl) of the same molecule?
**A.** 0.163

**Q.** And the photoluminescence quantum yield (in O)?
**A.** 0.003

**Q.** For Cc1cc(=O)oc2c1cc(Br)c1occ(C)c12, which photoluminescence quantum yield (in C1CCCCC1) is on record?
**A.** 0.0006

**Q.** What about the photoluminescence quantum yield (in C1COCCO1) of the same molecule?
**A.** 0.001

**Q.** What about the photoluminescence quantum yield (in CC#N) of the same molecule?
**A.** 0.002

**Q.** What about the photoluminescence quantum yield (in CCO) of the same molecule?
**A.** 0.004

**Q.** What about the photoluminescence quantum yield (in OCC(F)(F)F) of the same molecule?
**A.** 0.004

**Q.** With COc1cc(C2=c3c(c4ccc(C(C)(C)C)cc4c4c(OC)c(OC)c(OC)cc34)=[N+]3C2=Nc2c(-c4cc(OC)c(OC)c(OC)c4)c4c5cc(OC)c(OC)c(OC)c5c5cc(C(C)(C)C)ccc5c4n2[B-]3(F)F)cc(OC)c1OC as the molecule, how does the photoluminescence quantum yield (in Cc1ccccc1) read?
**A.** 0.001

**Q.** With F[B-]12Oc3ccccc3-c3c4[n+]5c(c([n+]31)-c1ccccc1O2)-c1ccccc1O[B-]5(F)Oc1ccccc1-4 as the molecule, how does the photoluminescence quantum yield (in ClCCl) read?
**A.** 0.29

**Q.** What does the source list for CN(C)c1ccc(C2=Cc3c4ccccc4c4ccccc4[n+]3[B-](F)(F)O2)cc1?
**A.** photoluminescence quantum yield (in C1CCOC1): 0.585; photoluminescence quantum yield (in C1COCCO1): 0.855; photoluminescence quantum yield (in CC1CCCCC1): 1; photoluminescence quantum yield (in CC#N): 0.447; photoluminescence quantum yield (in CCOC(C)=O): 0.655; photoluminescence quantum yield (in CCOCC): 0.999; photoluminescence quantum yield (in CN(C)C=O): 0.323; photoluminescence quantum yield (in CO): 0.471; photoluminescence quantum yield (in COC(C)=O): 0.441; photoluminescence quantum yield (in ClC(Cl)Cl): 0.811

**Q.** With CC1=[N+]2C(=C(c3ccccc3)c3ccc(C)n3[B-]2(F)F)C=C1 as the molecule, how does the photoluminescence quantum yield (in C1CCCCC1) read?
**A.** 0.29

**Q.** And the photoluminescence quantum yield (in C1CCOC1)?
**A.** 0.25

**Q.** What about the photoluminescence quantum yield (in CC#N) of the same molecule?
**A.** 0.17

**Q.** What about the photoluminescence quantum yield (in CCOC(C)=O) of the same molecule?
**A.** 0.25

**Q.** What about the photoluminescence quantum yield (in CO) of the same molecule?
**A.** 0.19

**Q.** And the photoluminescence quantum yield (in Cc1ccccc1)?
**A.** 0.42

**Q.** And the photoluminescence quantum yield (in ClC(Cl)Cl)?
**A.** 0.38

**Q.** Which results are given for COC(=O)C[C@H](NC(=O)[C@H](Cc1c[nH]c2ccccc12)NC(=O)OC(C)(C)C)C(=O)OC?
**A.** photoluminescence quantum yield (in CC#N): 0.36; photoluminescence quantum yield (in CCOC(C)=O): 0.39; photoluminescence quantum yield (in CO): 0.27

**Q.** Which photoluminescence quantum yield (in CC#N) does the source give for COC(=O)c1ccc(O)c(-c2[nH]c(=O)n3c2-c2ccccc2C3=O)c1 here?
**A.** 0.46

**Q.** What about the photoluminescence quantum yield (in CO) of the same molecule?
**A.** 0.35

**Q.** What about the photoluminescence quantum yield (in ClCCl) of the same molecule?
**A.** 0.86

**Q.** With c1cc2c3c(cccc3c1)NC(c1ccc3ccc4cccc5ccc1c3c45)N2 as the molecule, how does the photoluminescence quantum yield (in CC#N) read?
**A.** 0.24

**Q.** And the photoluminescence quantum yield (in CO)?
**A.** 0.05

**Q.** And the photoluminescence quantum yield (in CS(C)=O)?
**A.** 0.08

**Q.** What about the photoluminescence quantum yield (in Cc1ccccc1) of the same molecule?
**A.** 0.51

**Q.** With Cc1cc2[nH]c3ccccc3c2c2[nH]c3ccccc3c12 as the molecule, how does the photoluminescence quantum yield (in ClCCl) read?
**A.** 0.223

**Q.** For CCCCC(CC)CN1C(=O)c2cc(Oc3ccc(C(C)(C)C)cc3)c3c4c(Cl)cc5c6c(cc(Cl)c(c7c(Oc8ccc(C(C)(C)C)cc8)cc(c2c37)C1=O)c64)C(=O)N(c1c(C(C)C)cccc1C(C)C)C5=O (stereo unspecified), which photoluminescence quantum yield (in Cc1ccccc1) is on record?
**A.** 0.72

**Q.** For N#Cc1nn(-c2cccc(C(F)(F)F)c2)nc1N1CCCC1, which photoluminescence quantum yield (in CC#N) is on record?
**A.** 0.801

**Q.** What does the source list for c1ccc(-c2nc3c(c4c2-c2ccccc2CC4)-c2ccccc2CC3)cc1?
**A.** photoluminescence quantum yield (in C1CCOC1): 0.009; photoluminescence quantum yield (in CC#N): 0.001; photoluminescence quantum yield (in CCCCCC): 0.001; photoluminescence quantum yield (in CCOC(C)=O): 0.03; photoluminescence quantum yield (in CO): 0.002; photoluminescence quantum yield (in CS(C)=O): 0.003; photoluminescence quantum yield (in Cc1ccccc1): 0.002; photoluminescence quantum yield (in ClCCl): 0.01

**Q.** Which photoluminescence quantum yield (in C1CCCCC1) does the source give for CCc1c(C)c2n(c1C)[B-](F)(F)[N+]1=C(C=C3C=Cc4ccccc43)C=CC1=C2C here?
**A.** 0.02

**Q.** With COc1ccc2cc(/C=C/C3=C4CCc5ccccc5C4=[O+][B-](F)(F)O3)ccc2c1 as the molecule, how does the photoluminescence quantum yield (in ClCCl) read?
**A.** 0.33

**Q.** For CCCCCCc1ccc(-n2c3c4cccc(OC)c4nc(-c4ccc(OC)cc4)c3c3c2c2c(-c4ccc(OC)cc4)nc4c(OC)cccc4c2n3-c2ccc(CCCCCC)cc2)cc1, which photoluminescence quantum yield (in ClC(Cl)Cl) is on record?
**A.** 0.042

**Q.** Which photoluminescence quantum yield (in CC#N) does the source give for Oc1ccc2ccccc2c1C1Nc2cccc3cccc(c23)N1 here?
**A.** 0.03

**Q.** What about the photoluminescence quantum yield (in CO) of the same molecule?
**A.** 0.03

**Q.** What about the photoluminescence quantum yield (in CS(C)=O) of the same molecule?
**A.** 0.14

**Q.** And the photoluminescence quantum yield (in Cc1ccccc1)?
**A.** 0.33

**Q.** What does the source list for C[Si](C)(c1c2ccccc2cc2ccccc12)[Si](C)(C)c1c2ccccc2cc2ccccc12?
**A.** photoluminescence quantum yield (in C1CCCCC1): 0.07; photoluminescence quantum yield (in CC#N): 0.07

**Q.** With C(#Cc1nccnc1C#Cc1ccccc1)c1ccccc1 as the molecule, how does the photoluminescence quantum yield (in CC#N) read?
**A.** 0.07

**Q.** With C[N+]1=C(/C=C/C=C2/N(CCC[N+](C)(C)C)c3ccc(S(=O)(=O)[O-])cc3C2(C)C)C(C)(C)c2ccccc21 as the molecule, how does the photoluminescence quantum yield (in CS(C)=O) read?
**A.** 0.1

**Q.** For Cc1cscc1-c1cc2c3cc(-c4cscc4C)c4nc(C(F)(F)C(F)(F)C(F)(F)F)nc5c(-c6cscc6C)cc(c6cc(-c7cscc7C)c7nc(C(F)(F)C(F)(F)C(F)(F)F)nc1c7c26)c3c45, which photoluminescence quantum yield (in C1CCOC1) is on record?
**A.** 0.33

**Q.** Which results are given for O=C(O)CCCc1cc(C#Cc2ccccc2)c2ccc3c(C#Cc4ccccc4)cc(C#Cc4ccccc4)c4ccc1c2c34?
**A.** photoluminescence quantum yield (in CS(C)=O): 0.72; photoluminescence quantum yield (in ClC(Cl)(Cl)Cl): 0.56

**Q.** For CC(C)(C)c1ccc2c(c1)c1cc(C(C)(C)C)cc3c1n2B1c2c-3cccc2-c2cc(C(C)(C)C)cc3c4cc(C(C)(C)C)ccc4n1c23, which photoluminescence quantum yield (in C1CCOC1) is on record?
**A.** 0.63

**Q.** Which photoluminescence quantum yield (in CCO) does the source give for COC(=O)C(CCCCNC(=O)CCNc1cccc2ccccc12)NC(C)=O (stereo unspecified) here?
**A.** 0.54
